Patent USRE47193E1, “Selectively substituted quinoline compounds” (EISAI R&D MANAGEMENT CO., LTD., priority 2013, dated 2019)

System: NZB/W lupus disease model
Assay: NZBxNZW (NZB/W) lupus disease model
Type: in vivo, mouse
Details: for mortality: 33, 100 or 300 mg/kg QD PO, 21 weeks of treatment; for impact on anti-dsDNA titers: after 17 weeks of dosing, at 46 weeks of age
Protocol: FIG. 2A through FIG. 2C show results of testing ER-899742 in the NZBxNZW strain (abbreviated hereafter as NZBWF1/J or NZB/W) lupus disease model. Figure Legend: Female NZBWF1/J mice were received at 5 weeks of age, baseline bleeds were performed, and mice were monitored for disease progression by following anti-dsDNA titers. At 27 weeks of age, mice were randomized into groups with equivalent median anti-dsDNA titers and treated at 29 weeks of age with Vehicle (Veh; 0.5% methyl-cellulose) alone or 33, 100, or 300 mg/kg once-a-day orally (QD PO). At 46 weeks of age after 17 weeks of treatment mice were bled and tested for anti-dsDNA titers. All mice were sacrificed at 50 weeks of age (21 weeks of compound treatment). (FIG. 2A) Just prior to termination at 50 weeks of age (following 21 weeks of treatment), urine was collected from individual mice, and the Urinary Albumin Creatinine Ratio (UACR, proteinuria) was determined for each animal as an indirect measure of kidney function. (FIG. 2B) Timecourse of mortality observed in this study for the highest and lowest dose groups. […] (FIG. 2C) Impact of treatment on anti-dsDNA titers after 17 weeks of dosing, at 46 weeks of age.
FIG. 4A through FIG. 4C show results of testing ER-899464 in the NZB/W disease model in the same experiment as FIG. 2A. Figure Legend: (FIG. 4A) Just prior to termination at 50 weeks of age (following 21 weeks of treatment), urine was collected from individual mice, and the Urinary Albumin Creatinine Ratio (UACR, proteinuria) was determined for each animal as an indirect measure of kidney function. (FIG. 4B) Summary of mortality observed in this study for the highest and lowest dose groups. […] ([…]) Impact of treatment on anti-dsDNA titers after 17 weeks of dosing, at 46 weeks of age.
Mouse Lupus Disease Models.
Mouse lupus disease model strains. Female NZBWF1/J mice were purchased from Jackson Labs (Bar Harbor, Me.), both of which manifest with spontaneous lupus disease. Female DBA/1 mice were purchased from Harlan Laboratories (Indianapolis, Ind.) and at the indicated ages given an intraperitoneal injection of 0.5 ml pristane (2,6,10,14-Tetramethylpentadecane; Sigma, St. Louis, Mo.) to chemically induce lupus disease or of 0.5 ml PBS to generate age-matched, non-diseased control mice.
Female NZBWF1/J mice were received at 5 weeks of age, baseline bleeds were performed, and mice were monitored for disease progression by following anti-dsDNA titers. At 27 weeks of age, mice were randomized into groups with equivalent median anti-dsDNA titers and treated at 29 weeks of age with Vehicle (Veh; 0.5% methyl-cellulose) alone or 33, 100, or 300 mg/kg once-a-day orally (QD PO). At 46 weeks of age after 17 weeks of treatment, mice were bled and tested for anti-dsDNA titers. All mice were sacrificed at 50 weeks of age (21 weeks of compound treatment).
At the end of the experiment kidneys were collected from the animals tested in FIG. 2A through 2C, fixed in 10% formalin for 24 hours, embedded in paraffin, and H&E stained sections were generated for histopathology assessment in a blinded fashion (Grade 0/1+: WNL to minimal; Grade 2: Mild; Grade 3: Moderate to Marked; Grade 4: Severe).
Assessment of auto-antibody titers by ELISA. Anti-dsDNA, -Sm/nRNP, -RiboP, and -Histone titers were evaluated by standard ELISA approach. Briefly, 96-well EIA/RIA ELISA plates (Corning) were coated with 100 ul of diluted antigen in PBS for 90 minutes at room temperature as follows (final concentrations indicated): 10 U/ml Sm/nRNP complex (Immunovision), 10 ug/ml calf thymus dsDNA (Sigma), 5 U/ml RiboP (Immunovision), and 5 ug/ml Histone (Immunovision). Plates were washed with PBS/0.05% Tween20 (washing buffer) and blocked overnight with PBS/1% BSA (blocking buffer) at 4° C. […]

[1] = several doses between 33 and 300 mg/kg

SMILES	mortality	impact on anti-dsDNA titers	proteinuria (UACR) [1]	survival [1]	% combined incidence of Grade 3 and 4 (33 mpk) [%]	Number of mice with GN Score 0 (33 mpk QD PO, kidney histopathology, Grade 0/1+: WNL to minimal)	Number of mice with GN Score 2+ (33 mpk, Grade 2: Mild)	Number of mice with GN Score 3+ (33 mpk, Grade 3: Moderate to Marked)	Number of mice with GN Score 4+ (33 mpk, Grade 4: Severe)	% combined incidence of Grade 3 and 4 (100 mpk) [%]	Number of mice with GN Score 0 (100 mpk)	Number of mice with GN Score 2+ (100 mpk)	Number of mice with GN Score 3+ (100 mpk)	Number of mice with GN Score 4+ (100 mpk)	% combined incidence of Grade 3 and 4 (300 mpk) [%]	Number of mice with GN Score 0 (300 mpk)	Number of mice with GN Score 2+ (300 mpk)	Number of mice with GN Score 3+ (300 mpk)	Number of mice with GN Score 4+ (300 mpk)	histological signs of glomerulonephritis [1]
C[C@@H]1CN(c2ccc(C#N)c3ncccc23)C[C@H](C(=O)NC2CCN(C)CC2)O1 [ER-899464, (2R,6R)-4-(8-cyanoquinolin-5-yl)-6-methyl-N-(1-methylpiperidin-4-yl)morpholine-2-carboxamide]	No mortality was seen in the middle dose group	No statistically significant effect was observed	significantly reduced proteinuria	significant survival benefit																
C[C@@H]1CN(c2ccc(C#N)c3ncccc23)C[C@H](C(=O)N[C@H]2CNC[C@H]2F)O1.Cl [ER-899742, (2R,6R)-4-(8-cyanoquinolin-5-yl)-N-[(3S,4R)-4-fluoropyrrolidin-3-yl]-6-methylmorpholine-2-carboxamide hydrochloride]	No mortality was seen with compound treatment	No statistically significant effect was observed	significantly reduced proteinuria	pronounced survival benefit	11	11	5	1	1	6	15	1	1	0	11	9	7	0	2	significantly reduced
